Assay [1] relates to serk and sIwind1 mutant hypocotyl explants. Put plainly: Callus formation and shoot organogenesis of serk and sIwind1 mutant hypocotyl explants. The note with it: 1 nM REF1. It counts as cell-based, tomato. On the procedure: FIG. 49—REF1-RER1 regulates regeneration through SERK co-receptors. (a) RER1 complexes with SERK1, SERK3a and SERK3b in a REF1-dependent manner. Tobacco leaves transfected with SERKs-myc and RER1-HA-Flag were treated with 100 nM REF1 before IP with anti-myc agarose. RER1 and SERKs were detected by immunoblotting with anti-Flag or anti-myc antibodies, respectively. (b and c) REF1-induced callus formation of indicated genotypes. Hypocotyl explants were cultured on CIM with or without 1 nM REF1 for 14 d before callus phenotype was scored. Shown are representative callus images (b) and quantification of the callus projection area (c). Bars, 1 mm. Data are mean±SE. n=30 hypocotyl explants. […] Hypocotyl explants were cultured on CIM for 14 d and then transferred to SIM with or without 1 nM REF1 for 21d before shoot organogenesis phenotype was scored. […] In (c), the projected area of callus was quantified by Image J. Box plots represented the distribution of projected callus area. […] In (c) and (e), data points from three biological replicates were analysed with a one-sided Kruskal-Wallis test with Holm correction, followed by post hoc Dunn's test. […]
(a) Induction of the SIWIND1 promoter activity at the wound sites of hypocotyl explants. […] Hypocotyl explants were cultured on CIM with or without 1 nM REF1 for 14 d before callus phenotype was scored. […]

Another assay deals with SIWIND1 promoter. Put plainly: SIWIND1 promoter activity (pSIWIND1::GUS) in cut hypocotyls. It counts as cell-based, tomato. The note with it: cut hypocotyls on MS medium with or without 1 nM REF1. The procedure:
(a) Induction of the SIWIND1 promoter activity at the wound sites of hypocotyl explants. Hypocotyl explants of 7-d-old pSIWIND1::GUS plants were cultured on MS medium with or without 1 nM REF1. Representative images of hypocotyls at indicated time after wounding are shown. Bars, 1 mm. […] Hypocotyls of 7-d-old seedlings of the indicated genotypes were cut and hypocotyl explants were cultured on MS medium for 9 h before gene expression analysis. Hypocotyls of undamaged seedlings were harvested as control. Data are mean±SD, n=3 biological repeats. (c and d) REF1-induced callus formation in WT and sIwind1 mutants. Hypocotyl explants were cultured on CIM with or without 1 nM REF1 for 14 d before callus phenotype was scored. Shown are representative callus images (c) and quantification of the callus projection area (d). […] Hypocotyl explants were cultured on CIM for 14 d and then transferred to SIM with or without 1 nM REF1 for 21 d before shoot organogenesis phenotype was scored. […] Hypocotyl explants were cultured on CIM for 14 d before callus phenotype was scored. Shown are representative callus images (g) and quantification of the callus projection area (h). […] Hypocotyl explants were cultured on CIM for 14 d and then transferred to SIM for 21 d before shoot organogenesis phenotype was scored. […] In (h) and (j), statistical significance was determined by a student's t test (***p<0.001, **p<0.01, *p<0.05). […]

The test system of assay [2] is RER. Put plainly: Autophosphorylation assay of RER in tobacco leaves. It counts as cell-based, tomato. Particulars: 100 nM, 20 min.
Chain of RER (as listed by the source): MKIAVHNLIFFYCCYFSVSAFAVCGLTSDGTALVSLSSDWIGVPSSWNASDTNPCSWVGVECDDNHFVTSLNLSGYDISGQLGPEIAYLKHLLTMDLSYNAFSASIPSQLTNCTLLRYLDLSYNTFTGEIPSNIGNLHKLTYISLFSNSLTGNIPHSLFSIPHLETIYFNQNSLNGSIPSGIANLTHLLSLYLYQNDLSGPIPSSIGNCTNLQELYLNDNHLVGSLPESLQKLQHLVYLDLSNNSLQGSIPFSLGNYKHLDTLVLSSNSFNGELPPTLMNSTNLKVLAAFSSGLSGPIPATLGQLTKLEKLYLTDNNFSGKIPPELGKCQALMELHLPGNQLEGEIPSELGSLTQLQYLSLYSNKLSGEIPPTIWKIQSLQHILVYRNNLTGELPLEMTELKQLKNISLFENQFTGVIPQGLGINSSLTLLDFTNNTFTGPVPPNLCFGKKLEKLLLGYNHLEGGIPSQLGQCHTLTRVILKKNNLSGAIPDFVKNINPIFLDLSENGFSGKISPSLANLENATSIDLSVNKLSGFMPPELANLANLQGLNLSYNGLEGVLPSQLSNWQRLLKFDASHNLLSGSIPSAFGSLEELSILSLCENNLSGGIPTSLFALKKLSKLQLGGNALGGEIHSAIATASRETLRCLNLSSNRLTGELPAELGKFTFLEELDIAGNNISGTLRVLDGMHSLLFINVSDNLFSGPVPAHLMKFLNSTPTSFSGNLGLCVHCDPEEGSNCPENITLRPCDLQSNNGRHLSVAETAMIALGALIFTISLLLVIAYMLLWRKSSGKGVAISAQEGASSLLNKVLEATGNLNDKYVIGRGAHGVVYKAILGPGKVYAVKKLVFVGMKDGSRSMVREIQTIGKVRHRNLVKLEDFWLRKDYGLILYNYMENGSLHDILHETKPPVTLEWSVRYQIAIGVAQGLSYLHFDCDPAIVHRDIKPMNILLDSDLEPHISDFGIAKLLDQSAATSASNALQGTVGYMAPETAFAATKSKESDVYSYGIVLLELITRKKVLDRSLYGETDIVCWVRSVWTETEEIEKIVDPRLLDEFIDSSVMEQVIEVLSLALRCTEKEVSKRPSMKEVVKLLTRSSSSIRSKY
The subject of a further assay is ectodomains of RER. Put plainly: Pull-down assay with HA-Flag-tagged RER ectodomains and biotinylated peptides. It counts as binding, tomato. Particulars: biotinylated peptide.
Assay [3] has as its system RER. Kind of assay: pFRK1::LUC expression in A. thaliana protoplasts (receptor activation). It counts as cell-based, tomato. Particulars: 3 h.
Description: Data are mean±SD, n=3 repeats. […] Data are mean±SD, n=3 repeats.
Receptor activation was tested by using FRK1 expression as a marker gene. […] Data are mean±SD, n=3 repeats. ***P<0.001 (Student's t test); ns, not significant FRK-Luciferase expression was used as a marker to test REF1 binding-mediated activation of its receptor. Based on these assay, the EC50 was calculated (half-maximal stimulation) of REF1-receptor binding as an assessment of the binding affinity of REF1 to its receptor RER.

Entries after “also recorded” stand apart in the source; their conditions may differ.

Chain of ectodomains of RER (as listed by the source): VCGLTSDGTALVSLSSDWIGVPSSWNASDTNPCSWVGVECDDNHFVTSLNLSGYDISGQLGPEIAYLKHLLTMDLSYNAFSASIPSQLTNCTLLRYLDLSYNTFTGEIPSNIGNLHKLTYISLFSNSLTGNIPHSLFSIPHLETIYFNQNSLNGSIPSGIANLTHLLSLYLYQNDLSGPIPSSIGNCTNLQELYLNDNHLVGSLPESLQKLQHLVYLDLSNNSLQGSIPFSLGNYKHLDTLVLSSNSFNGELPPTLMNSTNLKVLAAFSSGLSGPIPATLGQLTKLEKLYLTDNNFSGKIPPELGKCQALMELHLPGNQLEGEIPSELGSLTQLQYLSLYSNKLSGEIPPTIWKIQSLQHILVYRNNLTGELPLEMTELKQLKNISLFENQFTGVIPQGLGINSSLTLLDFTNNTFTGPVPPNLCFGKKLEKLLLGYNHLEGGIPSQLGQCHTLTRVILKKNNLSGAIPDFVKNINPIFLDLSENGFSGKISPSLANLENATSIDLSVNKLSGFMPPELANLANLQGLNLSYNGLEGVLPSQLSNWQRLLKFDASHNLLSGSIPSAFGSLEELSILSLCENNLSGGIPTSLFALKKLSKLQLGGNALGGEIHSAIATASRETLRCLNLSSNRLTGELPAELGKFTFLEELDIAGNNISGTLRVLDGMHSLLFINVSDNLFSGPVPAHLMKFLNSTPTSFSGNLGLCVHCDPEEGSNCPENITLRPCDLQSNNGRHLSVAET

With “ATDRRGRPPSRPKVGSGPPPQNN (listed as Solanum lycopersicum) [REF1, 23 amino acid tomato peptide cleaved from precursor PROSIPEP]”, the “rescue of compromised regenerative capacity” value in assay [1] (sIwind1 mutants) was “could not be rescued”. The “rescue of regenerative defects (callus formation, shoot organogenesis)” value in assay [1] (serk3a-1, serk3b-1 and serk3a-1 serk3b-1 mutants) is reported as “failed to rescue”. In the assay with SIWIND1 promoter, the “SIWIND1 promoter activity / expression” value is reported as “enhanced; also recorded: promoting SIWIND1 expression”. Moreover, the “auto-phosphorylation of RER” value with RER [2] is reported as “triggers auto-phosphorylation”. Moreover, the “binding to RER ectodomain (pull-down)” value in the assay with ectodomains of RER was “binds”. Also, in the assay with RER [3] (100 nM), the “binding-mediated activation of receptor RER (pFRK1::LUC expression)” value is “bound”. Also, the “binding affinity of REF1 to its receptor RER” value in the assay on RER [3] (indicated concentrations) was “high affinity”.

Source of the values: patent US20260265771A1, “METHODS OF INCREASING THE REGENERATION EFFICIENCY IN PLANTS” (Institute of Genetics and Developmental Biology Chinese …, priority 2022, published 2026).
